Series [1] has as its system wild-type (AB) zebrafish (Danio rerio). Kind of series: animal or person. Format: in vivo. The conditions noted are these: for Distance moved / Variance turn angle: compound at 10 µM relative to controls, mean ± s.e.m., N = 12; for MEC: locomotor behaviors. Here is the method: (§1) Larval zebrafish were produced in the University of Toledo zebrafish core facility and housed in an incubator maintained at 28 °C on a 14:10 h cycle. Fish were acclimated to the testing room conditions the evening prior to testing. All testing took place during the 14 h light cycle after the lights had been on for at least 2 h.
The movement of larval zebrafish was monitored with the Noldus behavior recording system (Noldus Information Technology, Leesburg VA) and quantified using EthoVision® XT 15 software (Noldus Information Technology, Leesburg VA). Five-dpf zebrafish larvae were exposed to a range of nonlethal concentrations of compounds in a 24-well plate with appropriate controls. The plate was immediately placed in the incubator for a 30-min exposure period. After 30 min, the plate was transferred to the Noldus system and swimming behavior was recorded in 100% light for 30 min to measure spontaneous swimming behavior. The light was switched off for 10 min (dark period) and then switched on for 10 min (light period), which was then repeated for two additional cycles. In total, the larvae were exposed to three cycles of alternating 10 min dark and light periods (100% darkness-to-100% light). Each drug challenge was conducted on three separate plates with n = 6 larvae/dose/plate.
Absolute turn angle (TA) and angular velocity provided measures of the extent of turning behavior, while the intra-individual variance of turn angle quantified how consistently (low variance) or inconsistently (high variance) fish turned. A lowered intra-individual variance of turning reflected repeatedly performing the same turning behavior, a stereotypy.
All data for exposure and the behavioral end points were analyzed by one-way ANOVA (factor: drug concentration) followed by a Dunnett’s multiple comparisons test for post hoc significance between drug concentration and control group. Statistically significant differences are noted as follows; *p < 0.05; **p < 0.01; ***p < 0.001.

For series [2] the test system is unchanged. Format: in vivo. Particulars: compound at 10 µM relative to controls; mean ± s.e.m., N = 12.
Series [3] deals with T1, human M1 muscarinic receptors (Homo sapiens, UniProt P11229).
T1 sequence (P11229 1-460): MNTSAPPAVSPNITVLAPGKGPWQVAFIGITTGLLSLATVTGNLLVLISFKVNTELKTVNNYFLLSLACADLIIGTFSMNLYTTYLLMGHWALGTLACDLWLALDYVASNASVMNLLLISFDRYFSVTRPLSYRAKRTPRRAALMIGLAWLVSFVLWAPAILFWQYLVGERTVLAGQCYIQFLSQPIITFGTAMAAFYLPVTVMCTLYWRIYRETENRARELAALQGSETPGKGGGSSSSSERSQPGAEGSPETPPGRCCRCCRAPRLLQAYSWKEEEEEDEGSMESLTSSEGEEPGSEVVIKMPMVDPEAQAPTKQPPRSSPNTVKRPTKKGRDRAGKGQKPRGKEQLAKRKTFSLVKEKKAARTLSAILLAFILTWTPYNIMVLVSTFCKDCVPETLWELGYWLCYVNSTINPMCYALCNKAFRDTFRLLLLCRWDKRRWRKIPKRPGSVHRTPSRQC
Kind of series: [3H]-arachidonic acid release in CHO cells expressing M1 receptors, with and without ACh (single modulator concentration, four-parameter curves). Particulars: for 0.1 µM ACh: response with modulator present divided by response to ACh alone / 100 µM ACh: response with modulator present divided by response to ACh alone / No ACh: agonist effect of the allosteric ligand by itself, fraction of the maximal response that could be elicited by ACh: modulator 10 µM, CHO-hM1, mean ± s.e.m.; for No ACh: agonist effect of the allosteric ligand by itself, fraction of the maximal response that could be elicited by ACh: at least 4 determinations; for Effect on M1 receptor activity and ACh response, in words: modulators at 10 µM (amiodarone 30 µM). Format: cell-based. The arrangement: expressed in transfected cells; host or cells: CHO cells stably transfected with hM1, obtained from Mark Brann's laboratory (NIH). Here is the method:
CHO cells expressing human M1 muscarinic receptors were cultured at 37 °C in a 5% CO2 atmosphere in F12 medium supplemented with 5% fetal bovine serum, 100 units/ml penicillin, and 100 µg/ml streptomycin. These cells were obtained from Mark Brann’s laboratory when they were at NIH and have been in use by us and others for many years.
Measurement of [^3H]AA release was performed as described in Stahl and Ellis[24]. Stably transfected CHO-hM1 cells were seeded on 24-well plates (Greiner Bio-One GmbH, Frickenhausen, Germany) at a density of 5.0 × 10^4 cells/well in 0.5 ml of F-12 medium. Cells were incubated until they attached (approximately 3 h), followed by the addition of [^3H]AA to a final concentration of 0.05 μCi of [^3H]AA per well. The cells were then grown for 16 to 20 h before the assay was performed. [^3H]AA release was measured in Eagle’s basal medium with 20 mM HEPES and 2 mg/ml fatty acid-free bovine serum albumin (EM-BSA). Cells were rinsed twice with EM-BSA, followed by the addition of EM-BSA media containing experimental agents and incubated for 1 h at 37 °C. The assay was terminated by aspiration of the media, and the amount of [^3H]AA released was determined by liquid scintillation counting (Beckman-Coulter LS6500).
Where indicated (Fig. 2), cells were pretreated with POB to reduce the number of available receptors per cell. Stock POB was made up at 10 mM in ethanol and stored at −20C. Each well was pretreated with 0.5 ml of the appropriate concentration in PBS with 1 mM CaCl2 and 1 mM MgCl2 (PBS+ +) for 30 min at 37 °C, followed by 5 washes with PBS+ + . After pretreatment, the normal protocol follows as above.
Tabulated [^3H]AA release data are represented as a fraction of maximal release elicited by ACh or as the fraction of release elicited by the relevant concentration of ACh alone, as indicated. Dose-response curves were normalized to the maximal response of ACh without allosteric ligand. Where indicated, response curves were analyzed using the empirical four-parameter equation: Y=Top+Bottom-Top/1+X/C50^n where X is the concentration of the ligand used, Y is the amount of response, C50 is the concentration of the ligand that produces 50% of the maximal effect, Top and Bottom are the top and bottom plateaus of the curve, and n is related to the Hill slope for the curve. Where indicated, families of response curves were analyzed according to an allosteric operational model[50],[51]: Y=EM[τAA(KB+αβB)+τBBKA]/[τAA(KB+αβB)+τBBKA+AKB+KAKB+KAB+αAB] where EM is the maximal response; A is the concentration of ACh; B is the concentration of the allosteric ligand; τA and τB represent the operational efficacies of A and B, respectively; KA and KB are the equilibrium dissociation constants of A and B; and α and β represent the cooperativities between A and B in terms of binding and activation, respectively. Curve-fitting was carried out with GraphPad Prism, version 5.0 or 6.0 (San Diego CA).

The test system of series [4] is wild-type (AB) zebrafish (Danio rerio). As to the kind of experiment: Maximum tolerated concentration (MTC) determination in larval zebrafish. Format: in vivo. Particulars: after 24 h exposure; 5 dpf larvae. As for the experimental part:
as §1
Determination of maximum tolerated concentration (adapted from Berghmans)[52] was completed by placing 5 days post fertilization (dpf) wild-type zebrafish larvae in a 24 well plate at 6 fish per well, and one compound concentration per well. […] Death was determined by the absence of heartbeat. Additional endpoints were used to assess toxicity at non-lethal concentrations such as startle capacity (poke stimulus), abnormalities in swimming behavior (loss of dorsoventral balance), and gross morphological deformities (bent body). […] The MTC determination was used to select three doses of each compound (low, medium, high dose) to be used in behavioral assays.

Entries after “also recorded” stand apart in the source; their conditions may differ. Marks after values point to notes of the source that are not given here.

Take `COc1c(Cl)cc(CN2C(=O)C(=O)c3ccccc32)cc1Cl` [Compound 8e, 1-(3,5-dichloro-4-methoxybenzyl)indoline-2,3-dione]: in series [1], the Therap. index came to 100, the Distance moved is listed as 29.1 ± 5.3*** %, the Variance turn angle is on record as 158.8 ± 14.3*** % and the MEC came out at 1 µM. In series [2], this compound displayed an Angular velocity of 222.1 ± 25.0 %. For the same compound, in series [3], the “0.1 µM ACh: response with modulator present divided by response to ACh alone” value is given as 2.29 ± 0.14; the “100 µM ACh: response with modulator present divided by response to ACh alone” value was determined as 1.21 ± 0.07; the “No ACh: agonist effect of the allosteric ligand by itself, fraction of the maximal response that could be elicited by ACh” value came out at 0.13 ± 0.04. Also, in series [4], the “MTC (maximum tolerated concentration)” value is on record as 100 µM.

As for `COc1ccc(CN2C(=O)C(=O)c3ccccc32)cc1Br` [Compound 8d, 1-(3-bromo-4-methoxybenzyl)indoline-2,3-dione], in series [1], the Therap. index stood at 100, the Distance moved was 38.4 ± 4.5*** %, the Variance turn angle was 170.2 ± 15.1*** % and the MEC came out at 1 µM. In series [2], this compound gave an Angular velocity of 201.4 ± 27.5 %. Also, in series [3], the “0.1 µM ACh: response with modulator present divided by response to ACh alone” value amounted to 1.57 ± 0.06; the “100 µM ACh: response with modulator present divided by response to ACh alone” value is 0.90 ± 0.03; the “No ACh: agonist effect of the allosteric ligand by itself, fraction of the maximal response that could be elicited by ACh” value was determined as 0.04 ± 0.01. Besides, the “MTC (maximum tolerated concentration)” value in series [4] is listed as 100 µM.

On to `CCN(CC)CCOc1c(Br)cc(CN2C(=O)C(=O)c3ccccc32)cc1Br.Cl` [Compound 8l, 1-(3,5-dibromo-4-(2-(diethylamino)ethoxy)benzyl)indoline-2,3-dione hydrochloride], for which, in series [1], the Therap. index was determined as 1, the Distance moved was 33.5 ± 4.4** %, the Variance turn angle is given as 166.1 ± 12.5*** % and the MEC is 10 µM. This compound yielded an Angular velocity in series [2] of 184.7 ± 17.0 %. In series [3], the “0.1 µM ACh: response with modulator present divided by response to ACh alone” value amounted to 0.10 ± 0.07; the “100 µM ACh: response with modulator present divided by response to ACh alone” value is 0.86 ± 0.04; the “No ACh: agonist effect of the allosteric ligand by itself, fraction of the maximal response that could be elicited by ACh” value is recorded as 0.05 ± 0.01; the “Effect on M1 receptor activity and ACh response, in words” value (from here on “Effect … in words”) is reported as “only decreased ACh activity; also recorded: decreased ACh potency with little impact on ACh efficacy”. Also, in series [4], the “MTC (maximum tolerated concentration)” value amounted to 10 µM.

For the compound `CCCCc1oc2ccccc2c1C(=O)c1cc(I)c(OC)c(I)c1` [Compound 6b, (2-butylbenzofuran-3-yl)(3,5-diiodo-4-methoxyphenyl)methanone], in series [1], the Distance moved is on record as 75.3 ± 8.5* %, the Variance turn angle is listed as 133.7 ± 14.0* % and the MEC is listed as above 30 µM. In series [2], the Angular velocity came to 132.3 ± 16.9%. Moreover, in series [3], the “0.1 µM ACh: response with modulator present divided by response to ACh alone” value came to 1.78 ± 0.12; the “100 µM ACh: response with modulator present divided by response to ACh alone” value is recorded as 1.36 ± 0.07; the “No ACh: agonist effect of the allosteric ligand by itself, fraction of the maximal response that could be elicited by ACh” value is given as 0.08 ± 0.02; the “Effect … in words” value is recorded as “increased ACh activity”. Besides, the “MTC (maximum tolerated concentration)” value in series [4] amounted to 30 µM.

As to `CCCCc1oc2ccccc2c1C(=O)c1ccc(OC)cc1` [Compound 6a, (2-butylbenzofuran-3-yl)(4-methoxyphenyl)methanone], in series [1], the Distance moved is reported as 115.4 ± 11.7%, the Variance turn angle came to 115.8 ± 13.0% and the MEC is given as above 3 µM. In series [2], this compound registered an Angular velocity of 95.9 ± 13.3%. Further, in series [3], the “0.1 µM ACh: response with modulator present divided by response to ACh alone” value is 1.37 ± 0.07; the “100 µM ACh: response with modulator present divided by response to ACh alone” value is reported as 1.06 ± 0.04; the “No ACh: agonist effect of the allosteric ligand by itself, fraction of the maximal response that could be elicited by ACh” value came out at 0.05 ± 0.01; the “Effect … in words” value is “inactive”. Further, the “MTC (maximum tolerated concentration)” value in series [4] is given as 3 µM.

For `COc1ccc(CN2C(=O)C(=O)c3ccccc32)cc1Cl` [Compound 8f, 1-(3-chloro-4-methoxybenzyl)indoline-2,3-dione], in series [1], the Therap. index came to 3.3, the Distance moved is given as 37.4 ± 6.4*** %, the Variance turn angle was determined as 127.9 ± 16.2% and the MEC was 3 µM. Besides, in series [2], the Angular velocity was 157.1 ± 24.5 %. In series [3], the “0.1 µM ACh: response with modulator present divided by response to ACh alone” value came out at 1.67 ± 0.12; the “100 µM ACh: response with modulator present divided by response to ACh alone” value is given as 1.08 ± 0.06; the “No ACh: agonist effect of the allosteric ligand by itself, fraction of the maximal response that could be elicited by ACh” value came to 0.09 ± 0.04. Moreover, the “MTC (maximum tolerated concentration)” value in series [4] is recorded as 10 µM.

In series [1], `CCCCc1oc2ccccc2c1C(=O)c1ccc(OCCN(CC)CC)cc1` [Compound 6c, (2-butylbenzofuran-3-yl)(4-(2-(diethylamino)ethoxy)phenyl)methanone] returned a Therap. index of 30, a Distance moved of 59.8 ± 8.8%, a Variance turn angle of 136.4 ± 11.8% and an MEC of 0.1 µM. In series [2], this compound yielded an Angular velocity of 129.9 ± 20.1%. Besides, in series [3], the “0.1 µM ACh: response with modulator present divided by response to ACh alone” value is on record as 0.40 ± 0.11; the “100 µM ACh: response with modulator present divided by response to ACh alone” value turned out to be 1.04 ± 0.05; the “No ACh: agonist effect of the allosteric ligand by itself, fraction of the maximal response that could be elicited by ACh” value is 0.04 ± 0.01; the “Effect … in words” value is reported as “decreased ACh activity”. In series [4], the “MTC (maximum tolerated concentration)” value came out at 3 µM.

Source of the values: publication PMC11213934, “Allosteric modulators of M1 muscarinic receptors enhance acetylcholine efficacy and decrease locomotor activity and turning behaviors in zebrafish” (Scientific Reports, 2024).
